Measured values: patent US12128028B2, “Heterocyclic sulfonamide derivatives and pharmaceutical uses thereof” (METRION BIOSCIENCES LIMITED, priority 2018, dated 2024)

molecular target: human Kv1.3 (Homo sapiens (Human), UniProt P22001); assay: Kv1.3 potency evaluation, automated patch clamp electrophysiology (QPatch HT) in CHO-Kv1.3 cells; type: cell-based; conditions: whole-cell QPatch HT, % inhibition of charge, step to +30 mV, four concentrations, N≥3 cells, read-out: hKv1.3 IC50
Method in brief: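 Automated whole-cell patch clamp in CHO cells stably expressing human Kv1.3; steps from −80 to +30 mV (500 ms) at 0.067 Hz. Four cumulative concentrations after vehicle (0.1-0.3% DMSO); charge inhibition vs vehicle fitted by four-parameter logistic for IC50, N≥3 cells.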

Chain of human Kv1.3 (P22001 whole entry): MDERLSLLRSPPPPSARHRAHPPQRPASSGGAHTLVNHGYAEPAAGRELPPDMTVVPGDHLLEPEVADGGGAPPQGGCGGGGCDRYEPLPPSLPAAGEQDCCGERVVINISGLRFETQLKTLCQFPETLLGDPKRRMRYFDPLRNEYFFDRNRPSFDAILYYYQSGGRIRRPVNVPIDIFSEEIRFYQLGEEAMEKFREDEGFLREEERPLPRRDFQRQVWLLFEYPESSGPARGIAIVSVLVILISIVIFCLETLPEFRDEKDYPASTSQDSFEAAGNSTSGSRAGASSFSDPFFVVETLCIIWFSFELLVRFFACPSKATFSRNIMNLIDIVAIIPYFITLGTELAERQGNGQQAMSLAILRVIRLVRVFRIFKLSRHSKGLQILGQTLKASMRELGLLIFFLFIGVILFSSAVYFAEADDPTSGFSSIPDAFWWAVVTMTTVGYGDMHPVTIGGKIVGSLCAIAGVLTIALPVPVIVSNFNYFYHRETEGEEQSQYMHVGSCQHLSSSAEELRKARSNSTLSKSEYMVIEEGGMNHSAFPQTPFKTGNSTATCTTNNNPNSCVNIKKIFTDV

Row | Structure (SMILES) | IC50
1 | CC1(C)N=C(C23CC(N(Cc4ccc(Cl)c(F)c4)S(=O)(=O)c4ccccc4)(C2)C3)N[C@H]1C(=O)NCC(O)C(F)(F)F (mixture of isomers) [Example 233] | 209 nM
2 | C[C@]1(C(=O)N2CC3CC3C2)CN=C(C23CC(N(Cc4ccc(C(F)(F)F)cc4)S(=O)(=O)c4ccc(F)cc4)(C2)C3)N1 (mixture of isomers) [Example 234] | 211 nM
3 | CC(NC(=O)[C@@]1(C)CN=C(C23CC(N(Cc4ccc(C(F)(F)F)cc4)S(=O)(=O)c4ccc(F)cc4)(C2)C3)N1)C1CCC1 (mixture of isomers) [Example 238] | 221 nM
4 | CC(C)NC(=O)[C@H]1NC(C23CC(N(Cc4ccc(Cl)c(F)c4)S(=O)(=O)c4ccccc4)(C2)C3)=NC1(C)C (mixture of isomers) [Example 240] | 235 nM
5 | Cn1ccc(S(=O)(=O)N(Cc2ccc(Cl)cc2)C23CC(C4=NC(C)(C)[C@H](C(=O)NCCC(F)(F)F)N4)(C2)C3)n1 (mixture of isomers) [Example 241] | 243 nM
6 | CC1(C)N=C(C23CC(N(Cc4ccc(Cl)c(F)c4)S(=O)(=O)c4ccccc4)(C2)C3)N[C@H]1C(=O)NC12CC(C(F)(F)F)(C1)C2 (mixture of isomers) [Example 242] | 248 nM
7 | CC(C)NC(=O)[C@@]1(C)CN=C(C23CC(N(Cc4ccccc4)S(=O)(=O)c4ccc(F)cc4)(C2)C3)N1 (mixture of isomers) [Example 243] | 251 nM
8 | C[C@]1(C(=O)N2CCCCC2)CN=C(C23CC(N(Cc4ccc(C(F)(F)F)cc4)S(=O)(=O)c4ccc(F)cc4)(C2)C3)N1 (mixture of isomers) [Example 244] | 252 nM
9 | CC1N=C(C23CC(N(Cc4ccc(C(F)(F)F)cc4)S(=O)(=O)c4ccc(F)cc4)(C2)C3)N[C@@]1(C)C(=O)NCC1CCC1 (mixture of isomers) [Example 245] | 253 nM
10 | CC1(C)N=C(C23CC(N(Cc4ccc(C#N)cc4)S(=O)(=O)c4ccccc4)(C2)C3)N[C@H]1C(=O)NCCC(F)(F)F (mixture of isomers) [Example 246] | 258 nM
11 | C[C@@]1(C(=O)NCC2CCC2)CN=C(C23CC(N(Cc4ccc(C(F)(F)F)cc4)S(=O)(=O)c4ccc(F)cc4)(C2)C3)N1 (mixture of isomers) [Example 247] | 262 nM
12 | CC1(C)N=C(C23CC(N(Cc4ccc(Cl)c(F)c4)S(=O)(=O)c4ccccc4)(C2)C3)N[C@@H]1C(=O)N1CCC(F)(F)CC1 (mixture of isomers) [Example 248] | 275 nM
13 | CC1(C)N=C(C23CC(N(Cc4ccc(Cl)c(F)c4)S(=O)(=O)c4ccccc4)(C2)C3)N[C@H]1C(=O)N1CC2(CCC2(F)F)C1 (mixture of isomers) [Example 249] | 280 nM
14 | CC(C)NC(=O)[C@@]1(C)CN=C(C23CC(N(Cc4ccc(C(F)(F)F)cc4)S(=O)(=O)c4ccc(F)cc4)(C2)C3)N1 (mixture of isomers) [Example 250] | 286 nM
15 | CC1(C)N=C(C23CC(N(Cc4ccc(C(F)(F)F)cc4)S(=O)(=O)c4ccc(F)cc4)(C2)C3)N[C@@H]1C(=O)NCCC(F)(F)F (mixture of isomers) [Example 251] | 307 nM
16 | CC(C)S(=O)(=O)N(Cc1ccc(Cl)cc1)C12CC(C3=NC(C)(C)[C@H](C(=O)NCCC(F)(F)F)N3)(C1)C2 (mixture of isomers) [Example 252] | 317 nM
17 | C[C@]1(C(=O)N2CC3(CCC3)C2)CN=C(C23CC(N(Cc4ccc(C(F)(F)F)cc4)S(=O)(=O)c4ccc(F)cc4)(C2)C3)N1 (mixture of isomers) [Example 253] | 323 nM
18 | CC(C)NC(=O)[C@@]1(C)CN=C(C23CC(N(Cc4ccc(C(F)(F)F)cc4)S(=O)(=O)c4ccccc4)(C2)C3)N1 (mixture of isomers) [Example 254] | 333 nM
19 | CC1(C)N=C(C23CC(N(Cc4ccc(C(F)(F)F)cc4)S(=O)(=O)c4ccc(F)cc4)(C2)C3)N[C@@]1(C)C(=O)NCCC(F)(F)F (mixture of isomers) [Example 255] | 341 nM
20 | CN(CC1CCC1)C(=O)[C@@]1(C)CN=C(C23CC(N(Cc4ccc(C(F)(F)F)cc4)S(=O)(=O)c4ccc(F)cc4)(C2)C3)N1 (mixture of isomers) [Example 256] | 342 nM
21 | CC1(C)N=C(C23CC(N(Cc4ccc(Cl)c(F)c4)S(=O)(=O)c4ccccc4)(C2)C3)N[C@H]1C(=O)N1CCOCC1 (mixture of isomers) [Example 257] | 348 nM
22 | CC(C)NC(=O)[C@@]1(C)CN=C(C23CC(N(Cc4ccccc4)S(=O)(=O)c4ccccc4)(C2)C3)N1 (mixture of isomers) [Example 258] | 362 nM
23 | C[C@]1(C(=O)NCC(F)(F)F)CN=C(C23CC(N(Cc4ccc(C(F)(F)F)cc4)S(=O)(=O)c4ccc(F)cc4)(C2)C3)N1 (mixture of isomers) [Example 260] | 370 nM
24 | COCCS(=O)(=O)N(Cc1ccc(Cl)cc1)C12CC(C3=NC(C)(C)[C@H](C(=O)NCCC(F)(F)F)N3)(C1)C2 (mixture of isomers) [Example 261] | 386 nM
25 | C[C@]1(C(=O)N2CCCC2)CN=C(C23CC(N(Cc4ccc(C(F)(F)F)cc4)S(=O)(=O)c4ccc(F)cc4)(C2)C3)N1 (mixture of isomers) [Example 262] | 395 nM

Row | Structure (SMILES) | IC50
26 | CC1(C)CCN(C(=O)[C@@]2(C)CN=C(C34CC(N(Cc5ccc(C(F)(F)F)cc5)S(=O)(=O)c5ccc(F)cc5)(C3)C4)N2)C1 (mixture of isomers) [Example 264] | 404 nM
27 | CC1N=C(C23CC(N(Cc4ccc(C(F)(F)F)cc4)S(=O)(=O)c4ccc(F)cc4)(C2)C3)N[C@@]1(C)C(=O)NCCC(F)(F)F (mixture of isomers) [Example 265] | 408 nM
28 | CC1(CNC(=O)[C@@]2(C)CN=C(C34CC(N(Cc5ccc(C(F)(F)F)cc5)S(=O)(=O)c5ccc(F)cc5)(C3)C4)N2)CCC1 (mixture of isomers) [Example 267] | 424 nM
29 | C[C@]1(C(=O)NC2CCCCC2)CN=C(C23CC(N(Cc4ccc(C(F)(F)F)cc4)S(=O)(=O)c4ccc(F)cc4)(C2)C3)N1 (mixture of isomers) [Example 268] | 441 nM
30 | CN(C)C(=O)[C@@]1(C)CN=C(C23CC(N(Cc4ccc(C(F)(F)F)cc4)S(=O)(=O)c4ccc(F)cc4)(C2)C3)N1 (mixture of isomers) [Example 269] | 481 nM
31 | C[C@]1(C(=O)NCc2ccccc2)CN=C(C23CC(N(Cc4ccc(C(F)(F)F)cc4)S(=O)(=O)c4ccc(F)cc4)(C2)C3)N1 (mixture of isomers) [Example 270] | 485 nM
32 | CC1(C)N=C(C23CC(N(Cc4ccc(Cl)cc4)S(=O)(=O)C4CCOCC4)(C2)C3)N[C@H]1C(=O)NCCC(F)(F)F (mixture of isomers) [Example 272] | 524 nM
33 | CC1(C)N=C(C23CC(N(Cc4ccc(Cl)cc4)S(C)(=O)=O)(C2)C3)N[C@H]1C(=O)NCCC(F)(F)F (mixture of isomers) [Example 274] | 559 nM
34 | CC(NC(=O)[C@@]1(C)CN=C(C23CC(N(Cc4ccc(C(F)(F)F)cc4)S(=O)(=O)c4ccc(F)cc4)(C2)C3)N1)C1CCC1 (mixture of isomers) [Example 275] | 571 nM
35 | CC1(C)N=C(C23CC(N(Cc4ccc(Cl)cc4)S(=O)(=O)CC(F)(F)F)(C2)C3)N[C@H]1C(=O)NCCC(F)(F)F (mixture of isomers) [Example 276] | 575 nM
36 | C[C@]1(C(=O)NCCC2CCC2)CN=C(C23CC(N(Cc4ccc(C(F)(F)F)cc4)S(=O)(=O)c4ccc(F)cc4)(C2)C3)N1 (mixture of isomers) [Example 278] | 595 nM
37 | CC1(C)CC(NC(=O)[C@@]2(C)CN=C(C34CC(N(Cc5ccc(C(F)(F)F)cc5)S(=O)(=O)c5ccc(F)cc5)(C3)C4)N2)C1 (mixture of isomers) [Example 280] | 615 nM
38 | CC1(C)N=C(C23CC(N(Cc4ccc(Cl)c(F)c4)S(=O)(=O)c4ccccc4)(C2)C3)N[C@H]1C(=O)N1CCC1 (mixture of isomers) [Example 282] | 706 nM
39 | CC1(C)N=C(C23CC(N(Cc4ccc(Cl)c(Cl)c4)S(=O)(=O)c4ccccc4)(C2)C3)N[C@H]1C(=O)N1CCC2(COC2)C1 (mixture of isomers) [Example 283] | 749 nM
40 | C[C@@]1(C(=O)NCC2CCCCC2)CN=C(C23CC(N(Cc4ccc(C(F)(F)F)cc4)S(=O)(=O)c4ccc(F)cc4)(C2)C3)N1 (mixture of isomers) [Example 285] | 802 nM
41 | CC1(C)N=C(C23CC(N(Cc4ccc(Cl)cc4)S(=O)(=O)c4cc(C(F)(F)F)ccc4O)(C2)C3)N[C@H]1C(=O)NCCC(F)(F)F (mixture of isomers) [Example 286] | 859 nM
42 | CC1(C)N=C(C23CC(N(Cc4ccc(Cl)cc4)S(=O)(=O)C(C)(C)C)(C2)C3)N[C@H]1C(=O)NCCC(F)(F)F (mixture of isomers) [Example 287] | 976 nM
43 | C[C@@]1(C(=O)Nc2ccccc2)CN=C(C23CC(N(Cc4ccc(C(F)(F)F)cc4)S(=O)(=O)c4ccc(F)cc4)(C2)C3)N1 (mixture of isomers) [Example 288] | 1020 nM
44 | CC1(C)CC(CNC(=O)[C@@]2(C)CN=C(C34CC(N(Cc5ccc(C(F)(F)F)cc5)S(=O)(=O)c5ccc(F)cc5)(C3)C4)N2)C1 (mixture of isomers) [Example 289] | 1060 nM
45 | C[C@]1(C(=O)NCC2CCCCC2)CN=C(C23CC(N(Cc4ccc(C(F)(F)F)cc4)S(=O)(=O)c4ccc(F)cc4)(C2)C3)N1 (mixture of isomers) [Example 290] | 1060 nM
46 | CC1(C)N=C(C23CC(N(Cc4ccc(Cl)cc4)S(=O)(=O)c4ncc[nH]4)(C2)C3)N[C@H]1C(=O)NCCC(F)(F)F (mixture of isomers) [Example 291] | 1120 nM
47 | CC1(C)N=C(C23CC(N(Cc4ccc(Cl)cc4)S(=O)(=O)c4ccccc4C(N)=O)(C2)C3)N[C@H]1C(=O)NCCC(F)(F)F (mixture of isomers) [Example 292] | 2950 nM
48 | C[C@]1(C(=O)Nc2ccccc2)CN=C(C23CC(N(Cc4ccc(C(F)(F)F)cc4)S(=O)(=O)c4ccc(F)cc4)(C2)C3)N1 (mixture of isomers) [Example 293] | 4080 nM
49 | CC1(C)N=C(C23CC(N(Cc4ccc(Cl)cc4)S(=O)(=O)CCO)(C2)C3)N[C@H]1C(=O)NCCC(F)(F)F (mixture of isomers) [Example 294] | 10500 nM
